{"source": "patent US8952157B2", "about": "“Apoptosis-inducing agents for the treatment of cancer and immune and autoimmune diseases” (AbbVie Inc., priority 2008, dated 2015)", "data": [{"biological_target": "GST-Bcl-2 (Homo sapiens (Human), UniProt P10415)", "sequence (P10415 whole entry)": "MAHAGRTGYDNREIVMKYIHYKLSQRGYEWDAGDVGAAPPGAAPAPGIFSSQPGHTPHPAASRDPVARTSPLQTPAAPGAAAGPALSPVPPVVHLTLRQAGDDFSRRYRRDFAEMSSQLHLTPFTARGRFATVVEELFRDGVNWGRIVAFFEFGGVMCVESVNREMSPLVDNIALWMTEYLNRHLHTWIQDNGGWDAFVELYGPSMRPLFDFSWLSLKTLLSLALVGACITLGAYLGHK", "test": "Time Resolved-Fluorescence Resonance Energy Transfer (TR-FRET) Bcl-2 binding assay", "conditions": "not given", "method_in_brief": "(§1)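 Competition TR-FRET: GST-Bcl-2 with fluorescent Bak peptide probe and Tb-anti-GST antibody, compounds serially diluted from 50 μM (2× start, 10% DMSO).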", "units": {"Ki": "nM"}, "values": [{"smiles": "CC1(C)CCC(CN2CCN(c3ccc(C(=O)NS(=O)(=O)c4ccc(NC[C@H]5CC[C@H](O)CC5)c([N+](=O)[O-])c4)c(Oc4cc5cc[nH]c5cc4F)c3)CC2)=C(c2ccc(Cl)cc2)C1", "note": "[Example 338, Trans-4-(4-{[2-(4-chlorophenyl)-4,4-dimethylcyclohex-1-en-1-yl]methyl}piperazin-1-yl)-2-[(6-fluoro-1H-indol-5-yl)oxy]-N-[(4-{[(4-hydroxycyclohexyl)methyl]amino}-3-nitrophenyl)sulfonyl]benzamide]", "Ki": "< 0.01"}, {"smiles": "CC1(C)CCC(CN2CCN(c3ccc(C(=O)NS(=O)(=O)c4ccc(N[C@H]5CC[C@H](N6CCOCC6)CC5)c([N+](=O)[O-])c4)c(Oc4cnc(N)c(Cl)c4)c3)CC2)=C(c2ccc(Cl)cc2)C1", "note": "[Example 324, Trans-2-[(6-amino-5-chloropyridin-3-yl)oxy]-4-(4-{[2-(4-chlorophenyl)-4,4-dimethylcyclohex-1-en-1-yl]methyl}piperazin-1-yl)-N-({4-[(4-morpholin-4-ylcyclohexyl)amino]-3-nitrophenyl}sulfonyl)benzamide]", "Ki": "< 0.01"}]}, {"biological_target": "GST-Bcl-2 (Homo sapiens (Human), UniProt P10415)", "test": "Time Resolved-Fluorescence Resonance Energy Transfer (TR-FRET) Bcl-2 binding assay", "conditions": "GST-Bcl-2 1 nM, F-Bak peptide probe 100 nM, Tb-anti-GST antibody 1 nM; Ki by Wang's equation", "method_in_brief": "as §1", "units": {"Ki": "nM"}, "values": [{"smiles": "CC1(C)CCC(CN2CCN(c3ccc(C(=O)NS(=O)(=O)c4ccc(NCC5CCOCC5)c([N+](=O)[O-])c4)c(Oc4ccc(NC5CC5)nc4)c3)CC2)=C(c2ccc(Cl)cc2)C1", "note": "[Example 374, 4-(4-{[2-(4-chlorophenyl)-4,4-dimethylcyclohex-1-en-1-yl]methyl}piperazin-1-yl)-2-{[6-(cyclopropylamino)pyridin-3-yl]oxy}-N-({3-nitro-4-[(tetrahydro-2H-pyran-4-ylmethyl)amino]phenyl}sulfonyl)benzamide]", "Ki": 5.34}, {"smiles": "CC1(C)CCC(CN2CCN(c3ccc(C(=O)NS(=O)(=O)c4ccc(N[C@@H]5CCN(Cc6cscn6)C[C@@H]5O)c([N+](=O)[O-])c4)c(Oc4cc5cc[nH]c5cc4F)c3)CC2)=C(c2ccc(Cl)cc2)C1", "note": "[Example 249, 4-(4-{[2-(4-chlorophenyl)-4,4-dimethylcyclohex-1-en-1-yl]methyl}piperazin-1-yl)-2-[(6-fluoro-1H-indol-5-yl)oxy]-N-[(4-{[(3S,4R)-3-hydroxy-1-(1,3-thiazol-4-ylmethyl)piperidin-4-yl]amino}-3-nitrophenyl)sulfonyl]benzamide]", "Ki": 0.168}, {"smiles": "CN1CCC(Nc2ccc(S(=O)(=O)NC(=O)c3ccc(N4CCN(CC5=C(c6ccc(Cl)cc6)CC(C)(C)CC5)CC4)cc3Oc3cc(F)c4[nH]ccc4c3)cc2[N+](=O)[O-])CC1", "note": "[Example 50, 4-(4-((2-(4-chlorophenyl)-4,4-dimethylcyclohex-1-en-1-yl)methyl)piperazin-1-yl)-2-((7-fluoro-1H-indol-5-yl)oxy)-N-((4-((1-methylpiperidin-4-yl)amino)-3-nitrophenyl)sulfonyl)benzamide]", "Ki": 0.062}, {"smiles": "CC1(C)CCC(CN2CCN(c3ccc(C(=O)NS(=O)(=O)c4ccc(OCC#CCN5CCOCC5)c([N+](=O)[O-])c4)c(Oc4cc5cc[nH]c5cc4F)c3)CC2)=C(c2ccc(Cl)cc2)C1", "note": "[Example 317, 4-(4-{[2-(4-chlorophenyl)-4,4-dimethylcyclohex-1-en-1-yl]methyl}piperazin-1-yl)-2-[(6-fluoro-1H-indol-5-yl)oxy]-N-({4-[(4-morpholin-4-ylbut-2-ynyl)oxy]-3-nitrophenyl}sulfonyl)benzamide]", "Ki": 0.205}, {"smiles": "CC1(C)CCC(CN2CCN(c3ccc(C(=O)NS(=O)(=O)c4ccc(NCC5CCOCC5)c([N+](=O)[O-])c4)c(Oc4ccccc4-c4ccn[nH]4)c3)CC2)=C(c2ccc(Cl)cc2)C1", "note": "[Example 408, 4-(4-{[2-(4-chlorophenyl)-4,4-dimethylcyclohex-1-en-1-yl]methyl}piperazin-1-yl)-N-({3-nitro-4-[(tetrahydro-2H-pyran-4-ylmethyl)amino]phenyl}sulfonyl)-2-[2-(1H-pyrazol-5-yl)phenoxy]benzamide]", "Ki": 1.16}, {"smiles": "Cc1n[nH]c2cccc(Oc3cc(N4CCN(CC5=C(c6ccc(Cl)cc6)CC(C)(C)CC5)CC4)ccc3C(=O)NS(=O)(=O)c3ccc(NCCCN4CCOCC4)c([N+](=O)[O-])c3)c12", "note": "[Example 44, 4-(4-((2-(4-chlorophenyl)-4,4-dimethylcyclohex-1-en-1-yl)methyl)piperazin-1-yl)-2-((3-methyl-1H-indazol-4-yl)oxy)-N-((4-((3-morpholin-4-ylpropyl)amino)-3-nitrophenyl)sulfonyl)benzamide]", "Ki": 0.036}, {"smiles": "CC1(C)CCC(CN2CCN(c3ccc(C(=O)NS(=O)(=O)c4ccc(NCC5(N)CCOCC5)c([N+](=O)[O-])c4)c(Oc4cccc(Cl)c4)c3)CC2)=C(c2ccc(Cl)cc2)C1", "note": "[Example 109, N-[(4-{[(4-aminotetrahydro-2H-pyran-4-yl)methyl]amino}-3-nitrophenyl)sulfonyl]-2-(3-chlorophenoxy)-4-(4-{[2-(4-chlorophenyl)-4,4-dimethylcyclohex-1-en-1-yl]methyl}piperazin-1-yl)benzamide]", "Ki": 0.237}, {"smiles": "CC1(C)CCC(CN2CCN(c3ccc(C(=O)NS(=O)(=O)c4ccc(NCCN5CCOCC5)c([N+](=O)[O-])c4)c(Oc4ccccc4F)c3)CC2)=C(c2ccc(Cl)cc2)C1", "note": "[Example 126, 4-(4-{[2-(4-chlorophenyl)-4,4-dimethylcyclohex-1-en-1-yl]methyl}piperazin-1-yl)-2-(2-fluorophenoxy)-N-({4-[(2-morpholin-4-ylethyl)amino]-3-nitrophenyl}sulfonyl)benzamide]", "Ki": 0.068}, {"smiles": "CC1(C)CCC(CN2CCN(c3ccc(C(=O)NS(=O)(=O)c4ccc(NC5CCN(C6CCCC6)CC5)c([N+](=O)[O-])c4)c(Oc4cccc(F)c4F)c3)CC2)=C(c2ccc(Cl)cc2)C1", "note": "[Example 133, 4-(4-{[2-(4-chlorophenyl)-4,4-dimethylcyclohex-1-en-1-yl]methyl}piperazin-1-yl)-N-({4-[(1-cyclopentylpiperidin-4-yl)amino]-3-nitrophenyl}sulfonyl)-2-(2,3-difluorophenoxy)benzamide]", "Ki": 0.055}, {"smiles": "CC1(C)CCC(CN2CCN(c3ccc(C(=O)NS(=O)(=O)c4ccc(NCC5CN(C(CF)CF)CCO5)c([N+](=O)[O-])c4)c(Oc4cnc(N)c(Cl)c4)c3)CC2)=C(c2ccc(Cl)cc2)C1", "note": "(stereo not shown) [Example 378, 2-[(6-amino-5-chloropyridin-3-yl)oxy]-4-(4-{[2-(4-chlorophenyl)-4,4-dimethylcyclohex-1-en-1-yl]methyl}piperazin-1-yl)-N-({4-[({4-[2-fluoro-1-(fluoromethyl)ethyl]morpholin-2-yl}methyl)amino]-3-nitrophenyl}sulfonyl)benzamide]", "Ki": "< 0.01"}, {"smiles": "CN1CCC(Nc2ccc(S(=O)(=O)NC(=O)c3ccc(N4CCN(CC5=C(c6ccc(Cl)cc6)CCCC5)CC4)cc3Oc3ccccc3Cl)cc2[N+](=O)[O-])CC1", "note": "[Example 43, 2-(2-chlorophenoxy)-4-(4-((2-(4-chlorophenyl)cyclohex-1-en-1-yl)methyl)piperazin-1-yl)-N-((4-((1-methylpiperidin-4-yl)amino)-3-nitrophenyl)sulfonyl)benzamide]", "Ki": 0.034}, {"smiles": "CN1CCC(Nc2ccc(S(=O)(=O)NC(=O)c3ccc(N4CCN(CC5=C(c6ccc(Cl)cc6)CC(C)(C)CC5)CC4)cc3Oc3ccc(Cl)c(Cl)c3)cc2[N+](=O)[O-])CC1", "note": "[Example 164, 4-(4-{[2-(4-chlorophenyl)-4,4-dimethylcyclohex-1-en-1-yl]methyl}piperazin-1-yl)-2-(3,4-dichlorophenoxy)-N-({4-[(1-methylpiperidin-4-yl)amino]-3-nitrophenyl}sulfonyl)benzamide]", "Ki": 0.056}, {"smiles": "CC1(C)CCC(CN2CCN(c3ccc(C(=O)NS(=O)(=O)c4ccc(NC5CCN(Cc6ccsc6)CC5)c([N+](=O)[O-])c4)c(Oc4cccc(F)c4F)c3)CC2)=C(c2ccc(Cl)cc2)C1", "note": "[Example 136, 4-(4-{[2-(4-chlorophenyl)-4,4-dimethylcyclohex-1-en-1-yl]methyl}piperazin-1-yl)-2-(2,3-difluorophenoxy)-N-[(3-nitro-4-{[1-(thien-3-ylmethyl)piperidin-4-yl]amino}phenyl)sulfonyl]benzamide]", "Ki": 0.177}, {"smiles": "CC(C)N1CCC2(CCC(c3ccc(Cl)cc3)=C(CN3CCN(c4ccc(C(=O)NS(=O)(=O)c5ccc(NCC6CCOCC6)c([N+](=O)[O-])c5)c(Oc5cnc(N)c(Cl)c5)c4)CC3)C2)CC1", "note": "[Example 392, 2-[(6-amino-5-chloropyridin-3-yl)oxy]-4-(4-{[9-(4-chlorophenyl)-3-isopropyl-3-azaspiro[5.5]undec-8-en-8-yl]methyl}piperazin-1-yl)-N-({3-nitro-4-[(tetrahydro-2H-pyran-4-ylmethyl)amino]phenyl}sulfonyl)benzamide]", "Ki": "< 0.01"}, {"smiles": "CC1(C)CCC(CN2CCN(c3ccc(C(=O)NS(=O)(=O)c4ccc(NC5CCN(C6CC6)CC5)c([N+](=O)[O-])c4)c(Oc4cccc(F)c4F)c3)CC2)=C(c2ccc(Cl)cc2)C1", "note": "[Example 121, 4-(4-{[2-(4-chlorophenyl)-4,4-dimethylcyclohex-1-en-1-yl]methyl}piperazin-1-yl)-N-({4-[(1-cyclopropylpiperidin-4-yl)amino]-3-nitrophenyl}sulfonyl)-2-(2,3-difluorophenoxy)benzamide]", "Ki": 0.081}, {"smiles": "Cc1cccc(Oc2cc(N3CCN(CC4=C(c5ccc(Cl)cc5)CC(C)(C)CC4)CC3)ccc2C(=O)NS(=O)(=O)c2ccc(NC3CCN(C)CC3)c([N+](=O)[O-])c2)c1", "note": "[Example 182, 4-(4-{[2-(4-chlorophenyl)-4,4-dimethylcyclohex-1-en-1-yl]methyl}piperazin-1-yl)-2-(3-methylphenoxy)-N-({4-[(1-methylpiperidin-4-yl)amino]-3-nitrophenyl}sulfonyl)benzamide]", "Ki": 0.172}, {"smiles": "CN1CCC(Nc2ccc(S(=O)(=O)NC(=O)c3ccc(N4CCN(CC5=C(c6ccc(Cl)cc6)CC(C)(C)CC5)CC4)cc3OCc3csc(N)n3)cc2[N+](=O)[O-])CC1", "note": "[Example 223, 2-[(2-amino-1,3-thiazol-4-yl)methoxy]-4-(4-{[2-(4-chlorophenyl)-4,4-dimethylcyclohex-1-en-1-yl]methyl}piperazin-1-yl)-N-({4-[(1-methylpiperidin-4-yl)amino]-3-nitrophenyl}sulfonyl)benzamide]", "Ki": 10.9}]}]}
